In patent US20080085893A1, “MATRIX METALLOPROTEASE INHIBITORS” (priority 2006, published 2008):
Where “and” joins values, the source holds several entries; their conditions need not be identical. Identical values can stand only once.

Experiments:
Assay type in all cases: biochemical
[1] = target: T1, human MMP-1 (amino acids 100-262) (Homo sapiens, UniProt P03956); assay: MMP dose response assay for determining IC50, MMP-1; details: recombinant catalytic domain, fluorescent-quench substrate 100 nM
T1 construct: human MMP-1 (amino acids 100-262); made in house
T1 sequence (P03956 100-262): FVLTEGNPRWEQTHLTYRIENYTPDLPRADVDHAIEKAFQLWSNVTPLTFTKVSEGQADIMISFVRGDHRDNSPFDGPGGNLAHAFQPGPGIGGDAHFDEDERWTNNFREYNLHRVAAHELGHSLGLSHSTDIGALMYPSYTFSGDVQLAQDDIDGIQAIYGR
Procedure: MMP Dose Response Assay for Determining IC50
The following method was used for determining IC50 values of different inhibitor compounds against multiple MMP enzymes. Frozen stocks of recombinantly produced MMPs were prepared in assay buffer (50 mM HEPES pH 7.4, 10 mM CaCl2, 0.05% Brij-35). […] Enzyme concentrations in the assay were determined empirically and set such that proteolytic activity was maintained in a linear range over the time-course of the experiment. […] Each concentration for each test compound was tested in triplicate. MMP enzymes were equilibrated with compounds for 1 hour at room temperature, then a fluorescent-quench substrate (Acetyl-Cys(Eu)-Pro-Leu-Gly-Leu-Lys-(QSY7)-Ala-Arg-amide) was added to a final concentration of 100 nM. […] Data was analyzed by first calculating average background value from wells that contained only substrate, and this value was subtracted from the entire plate. The 100%, or maximum value, was determined by averaging control wells that contained enzyme, substrate and DMSO. For each well, the percent of control was calculated by dividing the well value by the average DMSO value obtained above.

[2] = target: T2, human MMP-2 (amino acids 1-660) (Homo sapiens, UniProt P08253); assay: MMP dose response assay for determining IC50, MMP-2; details: recombinant enzyme, fluorescent-quench substrate 100 nM; read-out: MMP-2
T2 construct: human MMP-2 (amino acids 1-660); made in house
T2 sequence (P08253 110-660): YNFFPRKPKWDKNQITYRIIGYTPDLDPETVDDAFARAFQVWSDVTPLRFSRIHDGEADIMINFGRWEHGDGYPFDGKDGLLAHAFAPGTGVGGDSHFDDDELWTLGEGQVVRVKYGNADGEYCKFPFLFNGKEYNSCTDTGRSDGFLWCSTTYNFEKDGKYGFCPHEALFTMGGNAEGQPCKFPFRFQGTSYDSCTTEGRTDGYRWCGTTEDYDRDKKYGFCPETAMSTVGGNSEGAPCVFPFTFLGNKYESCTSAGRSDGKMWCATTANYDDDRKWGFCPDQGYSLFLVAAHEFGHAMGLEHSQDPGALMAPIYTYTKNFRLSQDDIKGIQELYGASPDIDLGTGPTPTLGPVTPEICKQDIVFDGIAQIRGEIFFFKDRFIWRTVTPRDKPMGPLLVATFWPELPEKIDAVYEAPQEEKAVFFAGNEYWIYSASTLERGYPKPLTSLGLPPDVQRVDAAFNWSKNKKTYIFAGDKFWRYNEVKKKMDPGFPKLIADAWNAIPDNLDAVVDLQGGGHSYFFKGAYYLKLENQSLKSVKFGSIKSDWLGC
Summary of the method: (§1)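 Recombinant enzymes in 50 mM HEPES pH 7.4, 10 mM CaCl2, 0.05% Brij-35, at empirically set levels keeping activity linear, preincubated 1 h at room temperature with compound in triplicate. Fluorescence-quench peptide substrate (Eu/QSY7) added at 100 nM final. Background-subtracted signal expressed as percent of DMSO control for IC50.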

[3] = target: T3, human MMP-9 (amino acids 107-446) (Homo sapiens, UniProt P14780); assay: MMP dose response assay for determining IC50, MMP-9; details: recombinant enzyme, fluorescent-quench substrate 100 nM; read-out: MMP-9
T3 construct: human MMP-9 (amino acids 107-446); made in house
T3 sequence (P14780 107-446): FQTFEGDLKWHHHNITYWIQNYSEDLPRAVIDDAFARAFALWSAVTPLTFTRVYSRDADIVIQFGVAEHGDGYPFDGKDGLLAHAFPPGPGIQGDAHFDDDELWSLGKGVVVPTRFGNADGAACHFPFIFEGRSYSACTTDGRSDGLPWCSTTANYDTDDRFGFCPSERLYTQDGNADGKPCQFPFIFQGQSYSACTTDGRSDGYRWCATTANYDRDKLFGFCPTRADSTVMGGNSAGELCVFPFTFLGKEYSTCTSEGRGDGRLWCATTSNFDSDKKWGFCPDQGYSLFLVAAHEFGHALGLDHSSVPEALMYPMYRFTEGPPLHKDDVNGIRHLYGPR
Summary of the method: as §1

| SMILES | IC50 [1] | IC50 [2] | IC50 [3] |
| --- | --- | --- | --- |
| Cc1ccc(Oc2ccc(N(C[C@H](Nc3cccc(Cl)c3)C(=O)NO)S(C)(=O)=O)cc2)cc1 [Example 44, N-Hydroxy (2S)-2-(3-chlorophenyl)amino-3-{N-[4-(4-methylphenoxy)phenyl],N-methanesulfonylamino}propionamide] | > 10 µM | 333 nM | 19.7 nM |
| Cc1ccc(Oc2ccc(N(C[C@H](Nc3cccc(C(F)(F)F)c3)C(=O)NO)S(C)(=O)=O)cc2)cc1 [Example 45, N-Hydroxy (2S)-3-{N-[4-(4-methylphenoxy)phenyl],N-methanesulfonylamino}-2-(3-trifluorormethylphenyl)aminopropionamide] | 6 µM | 682 nM | 58.3 nM |
| Cc1ccc(Oc2ccc(N(C[C@H](N[C@H](C)c3ccccc3)C(=O)NO)S(C)(=O)=O)cc2)cc1 [Example 46, N-Hydroxy (2S)-3-{N-[4-(4-methylphenoxy)phenyl],N-methanesulfonylamino}-2-[(1R)-1-phenyl-1-ethyl]aminopropionamide] | > 10 µM | 24.1 nM | 1.54 nM |
| Cc1ccc(Oc2ccc(N(C[C@H](N[C@@H](C)c3ccccc3)C(=O)NO)S(C)(=O)=O)cc2)cc1 [Example 47, N-Hydroxy (2S)-3-{N-[4-(4-methylphenoxy)phenyl],N-methanesulfonylamino}-2-[(1S)-1-phenyl-1-ethyl]aminopropionamide] | 6.79 µM | 11.7 nM | 0.54 nM |
| Cc1ccc(Oc2ccc(N(C[C@H](Nc3ccc4ccccc4c3)C(=O)NO)S(C)(=O)=O)cc2)cc1 [Example 60, N-Hydroxy (2S)-3-{N-[4-(4-methylphenoxy)phenyl],N-methanesulfonylamino}-2-(naphthylen-2-yl)aminopropionamide] | 5.98 µM and > 10 µM | 1440 nM and 875 nM | 86.5 nM and 93.8 nM |
| CS(=O)(=O)N(C[C@H](O)C(=O)NO)c1ccc(C#Cc2ccc(Cl)cc2)cc1 [Example 62, N-Hydroxy (2S)-2-hydroxy-3-{N-[4-(4-chlorophenylacetylene)phenyl],N-methanesulfonylamino}propionamide] | > 10 µM | 56.2 nM | 47.3 nM |
| CS(=O)(=O)N(C[C@H](O)C(=O)NO)c1ccc(C#Cc2cccs2)cc1 [Example 64, N-Hydroxy (2S)-2-hydroxy-3-{N-[4-(4-thiophen-2-ylacetylene)phenyl],N-methanesulfonylamino}propionamide] | > 10 µM | 103 nM | 774 nM |
| CS(=O)(=O)N(C[C@@H](C(=O)NO)N1CCN(C(=O)OCc2ccccc2)CC1)c1ccc(Oc2ccc(C(F)(F)F)cc2)cc1 [Example 67, N-Hydroxy (2S)-2-[(4-benzyloxycarbonyl)piperazin-1-yl]-3-{N-[4-(4-trifluoromethylphenoxy)phenyl],N-methanesulfonylamino}propionamide] | > 10 µM | 4.76 nM and 4.37 nM | 6.52 nM and 8.51 nM |
| CC(C)N(CCNC(=O)OCc1ccccc1)[C@@H](CN(c1ccc(Oc2ccc(C(F)(F)F)cc2)cc1)S(C)(=O)=O)C(=O)NO [Example 68] | > 10 µM | 262 nM | 28.8 nM |
| CC(C)N(Cc1ccccc1)[C@@H](CN(c1ccc(Oc2ccc(C(F)(F)F)cc2)cc1)S(C)(=O)=O)C(=O)NO [Example 69, N-Hydroxy (2S)-2-[N-benzyl-N-(2-propyl)amino]-3-{N-[4-(4-trifluoromethylphenoxy)phenyl],N-methanesulfonylamino}propionamide] | > 10 µM | 281 nM | 67.5 nM |
| CS(=O)(=O)N(C[C@@H](C(=O)NO)N1CCS(=O)(=O)CC1)c1ccc(Oc2ccc(C(F)(F)F)cc2)cc1 [Example 70, N-Hydroxy (2S)-2-[1,1-bis(oxo)thiomorpholin-4-yl]-3-{N-[4-(4-trifluoromethylphenoxy)phenyl],N-methanesulfonylamino}propionamide] | > 10 µM | 4.65 nM and 4.99 nM and 15.8 nM | 1.9 nM and 1.52 nM and 6.29 nM |
| CS(=O)(=O)N(C[C@@H](C(=O)NO)N1CCC(O)CC1)c1ccc(Oc2ccc(C(F)(F)F)cc2)cc1 [Example 71, N-Hydroxy (2S)-2-(4-hydroxypiperidin-1-yl)-3-{N-[4-(4-trifluoromethylphenoxy)phenyl],N-methanesulfonylamino}propionamide] | 8.55 µM and > 10 µM | 1.57 nM and 4.93 nM and 10.7 nM | 0.66 nM and 1.45 nM and 3.56 nM |
| CS(=O)(=O)N(C[C@@H](C(=O)NO)N1Cc2ccccc2C1)c1ccc(Oc2ccc(C(F)(F)F)cc2)cc1 [Example 72, N-Hydroxy (2S)-2-(isoindolin-2-yl)-3-{N-[4-(4-trifluoromethylphenoxy)phenyl],N-methanesulfonylamino}propionamide] | > 10 µM | 3.76 nM and 1.02 nM | 0.72 nM and 0.17 nM |
| CN(C)[C@H]1CCN([C@@H](CN(c2ccc(Oc3ccc(C(F)(F)F)cc3)cc2)S(C)(=O)=O)C(=O)NO)C1 [Example 74, N-Hydroxy (2S)-2-[(3S)-3-N,N-dimethylaminopyrrolidin-1-yl]-3-{N-[4-(4-trifluoromethylphenoxy)phenyl],N-methanesulfonylamino}propionamide] | > 10 µM | 17.7 nM | 3.86 nM |
| CN(C)[C@@H]1CCN([C@@H](CN(c2ccc(Oc3ccc(C(F)(F)F)cc3)cc2)S(C)(=O)=O)C(=O)NO)C1 [Example 75, N-Hydroxy (2S)-2-[(3R)-3-N,N-dimethylaminopyrrolidin-1-yl]-3-{N-[4-(4-trifluoromethylphenoxy)phenyl],N-methanesulfonylamino}propionamide] | > 10 µM | 15.2 nM and 21.5 nM | 2.18 nM and 3.16 nM |
| CS(=O)(=O)N(C[C@@H](C(=O)NO)N1CCC(c2ccccc2)CC1)c1ccc(Oc2ccc(C(F)(F)F)cc2)cc1 [Example 76, N-Hydroxy (2S)-3-{N-[4-(4-trifluoromethylphenoxy)phenyl],N-methanesulfonylamino}-2-(4-phenylpiperidin-1-yl)propionamide] | > 10 µM | 47.2 nM | 17 nM |
| CS(=O)(=O)N(C[C@@H](C(=O)NO)N1CCN(c2ccc(Cl)cc2)CC1)c1ccc(Oc2ccc(C(F)(F)F)cc2)cc1 [Example 77, N-Hydroxy (2S)-2-[4-(4-chlorophenyl)piperazin-1-yl]-3-{N-[4-(4-trifluoromethylphenoxy)phenyl],N-methanesulfonylamino}propionamide] | > 10 µM | 119 nM | 256 nM |
| CS(=O)(=O)N(C[C@H](NCCc1c[nH]c2ccccc12)C(=O)NO)c1ccc(Oc2ccc(C(F)(F)F)cc2)cc1 [Example 78] | > 10 µM | 318 nM | 116 nM |
| CS(=O)(=O)N(C[C@@H](C(=O)NO)N1CCC(O)(c2ccc(Br)cc2)CC1)c1ccc(Oc2ccc(C(F)(F)F)cc2)cc1 [Example 79, N-Hydroxy (2S)-2-[4-(4-bromophenyl)-4-hydroxypiperidin-1-yl]-3-{N-[4-(4-trifluoromethylphenoxy)phenyl],N-methanesulfonylamino}propionamide] | > 10 µM | 38.9 nM | 37.1 nM |
| CC(C)N(CCN1C(=O)N(C)C(C)(C)C1=O)[C@@H](CN(c1ccc(Oc2ccc(C(F)(F)F)cc2)cc1)S(C)(=O)=O)C(=O)NO [Example 80, N-Hydroxy (2S)-2-{N-(2-propyl),N-[2-(1,5,5-trimethylhydantoin-3-yl)ethyl]amino}-3-{N-[4-(4-trifluoromethylphenoxy)phenyl]-N-methanesulfonylamino}propionamide] | > 10 µM | 24.3 nM | 2.67 nM |
| COC[C@H]1CCCN1[C@@H](CN(c1ccc(Oc2ccc(C(F)(F)F)cc2)cc1)S(C)(=O)=O)C(=O)NO [Example 81, N-Hydroxy (2S)-2-[(2R)-2-methoxymethylpyrrolidin-1-yl]-3-{N-[4-(4-trifluoromethylphenoxy)phenyl],N-methanesulfonylamino}propionamide] | > 10 µM | 14.2 nM | 3.16 nM |
